Results from US11192890B2, “FGFR kinase inhibitors and pharmaceutical uses” (AUCKLAND UNISERVICES LIMITED, priority 2017, dated 2021).
Where “and” joins values, the source holds several entries; their conditions need not be identical. Identical values can stand only once. Like-named read-outs stand apart in the source and are kept apart here.

Columns and labels:
[1] = test system: FGFR3-amplified SW780 bladder cancer cells; assay: Cell proliferation assay (SRB); details: Homo sapiens, SW780, 120 h
FGFR4 = target: T1, FGFR4 (Homo sapiens, UniProt P22455); assay: Isolated enzyme FRET-based Z-Lyte kinase inhibition assay; assay type: biochemical; details: means from 3 independent experiments; read-out: Isolate Enzyme Inhibition IC50, FGFR4
T1 construct: purchased Invitrogen
T1 sequence (P22455 22-802): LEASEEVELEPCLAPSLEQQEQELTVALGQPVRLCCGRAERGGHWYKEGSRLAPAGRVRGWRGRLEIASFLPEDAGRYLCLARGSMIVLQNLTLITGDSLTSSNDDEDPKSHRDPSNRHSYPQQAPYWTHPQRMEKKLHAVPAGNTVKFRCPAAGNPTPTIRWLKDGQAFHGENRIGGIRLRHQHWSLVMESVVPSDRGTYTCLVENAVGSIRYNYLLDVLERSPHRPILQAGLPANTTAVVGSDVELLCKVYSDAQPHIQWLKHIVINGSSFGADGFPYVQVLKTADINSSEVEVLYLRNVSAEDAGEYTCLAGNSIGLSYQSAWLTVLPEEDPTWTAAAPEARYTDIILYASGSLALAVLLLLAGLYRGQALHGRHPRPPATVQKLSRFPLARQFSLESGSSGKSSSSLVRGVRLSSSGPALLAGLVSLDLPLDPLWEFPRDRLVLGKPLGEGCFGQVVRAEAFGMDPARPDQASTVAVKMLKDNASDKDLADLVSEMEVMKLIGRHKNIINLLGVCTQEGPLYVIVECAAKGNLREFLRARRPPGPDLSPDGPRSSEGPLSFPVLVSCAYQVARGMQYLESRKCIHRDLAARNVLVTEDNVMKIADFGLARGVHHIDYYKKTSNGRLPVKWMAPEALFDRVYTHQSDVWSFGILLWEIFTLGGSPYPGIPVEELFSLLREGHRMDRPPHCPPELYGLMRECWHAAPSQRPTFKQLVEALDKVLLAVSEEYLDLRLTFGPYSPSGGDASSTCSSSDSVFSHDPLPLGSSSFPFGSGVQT
Experimental: (§1) FGFR1-4 and the Z-Lyte Kinase Assay Kit were purchased from Invitrogen. The concentration gradients from 5.1×10^−11 to 1.0×10^−6 mol/L were used for all the test compounds. The experiments were performed according to the instructions of the manufacturer.
(§2) FGFR1-4 isolated enzyme activity was determined using the FRET-based Z-Lyte kinase inhibition assay. The data are the means from 3 independent experiments.

FGFR3 = target: T2, FGFR3 (Homo sapiens, UniProt P22607); assay: as above; assay type: biochemical; details: means from 3 independent experiments; read-out: Isolate Enzyme Inhibition IC50, FGFR3
T2 construct: purchased Invitrogen
T2 sequence (P22607 23-806): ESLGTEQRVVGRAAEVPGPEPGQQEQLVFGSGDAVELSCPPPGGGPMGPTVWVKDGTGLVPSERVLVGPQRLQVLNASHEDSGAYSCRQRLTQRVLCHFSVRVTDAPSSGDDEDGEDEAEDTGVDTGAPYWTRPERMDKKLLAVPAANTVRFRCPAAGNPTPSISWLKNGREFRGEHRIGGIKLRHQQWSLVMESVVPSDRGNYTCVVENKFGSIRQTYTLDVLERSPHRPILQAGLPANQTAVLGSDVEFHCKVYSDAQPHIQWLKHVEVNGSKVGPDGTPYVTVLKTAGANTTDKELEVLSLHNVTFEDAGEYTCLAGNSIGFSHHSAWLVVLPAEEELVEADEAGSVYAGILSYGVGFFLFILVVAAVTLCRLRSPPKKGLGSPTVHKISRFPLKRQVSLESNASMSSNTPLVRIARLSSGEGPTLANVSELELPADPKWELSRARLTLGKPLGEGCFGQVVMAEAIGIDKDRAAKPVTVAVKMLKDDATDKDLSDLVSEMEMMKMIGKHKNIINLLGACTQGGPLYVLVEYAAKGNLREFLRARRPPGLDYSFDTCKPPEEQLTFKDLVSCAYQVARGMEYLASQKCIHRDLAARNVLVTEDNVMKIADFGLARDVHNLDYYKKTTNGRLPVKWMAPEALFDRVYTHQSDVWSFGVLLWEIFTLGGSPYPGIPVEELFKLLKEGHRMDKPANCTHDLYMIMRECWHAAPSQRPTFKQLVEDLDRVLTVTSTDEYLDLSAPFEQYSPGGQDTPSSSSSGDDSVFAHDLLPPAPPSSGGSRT
Experimental: as §1, §2

FGFR2 = target: T3, FGFR2 (Homo sapiens, UniProt P21802); assay: as above; assay type: biochemical; details: means from 3 independent experiments; read-out: Isolate Enzyme Inhibition IC50, FGFR2
T3 construct: purchased Invitrogen
T3 sequence (P21802 22-821): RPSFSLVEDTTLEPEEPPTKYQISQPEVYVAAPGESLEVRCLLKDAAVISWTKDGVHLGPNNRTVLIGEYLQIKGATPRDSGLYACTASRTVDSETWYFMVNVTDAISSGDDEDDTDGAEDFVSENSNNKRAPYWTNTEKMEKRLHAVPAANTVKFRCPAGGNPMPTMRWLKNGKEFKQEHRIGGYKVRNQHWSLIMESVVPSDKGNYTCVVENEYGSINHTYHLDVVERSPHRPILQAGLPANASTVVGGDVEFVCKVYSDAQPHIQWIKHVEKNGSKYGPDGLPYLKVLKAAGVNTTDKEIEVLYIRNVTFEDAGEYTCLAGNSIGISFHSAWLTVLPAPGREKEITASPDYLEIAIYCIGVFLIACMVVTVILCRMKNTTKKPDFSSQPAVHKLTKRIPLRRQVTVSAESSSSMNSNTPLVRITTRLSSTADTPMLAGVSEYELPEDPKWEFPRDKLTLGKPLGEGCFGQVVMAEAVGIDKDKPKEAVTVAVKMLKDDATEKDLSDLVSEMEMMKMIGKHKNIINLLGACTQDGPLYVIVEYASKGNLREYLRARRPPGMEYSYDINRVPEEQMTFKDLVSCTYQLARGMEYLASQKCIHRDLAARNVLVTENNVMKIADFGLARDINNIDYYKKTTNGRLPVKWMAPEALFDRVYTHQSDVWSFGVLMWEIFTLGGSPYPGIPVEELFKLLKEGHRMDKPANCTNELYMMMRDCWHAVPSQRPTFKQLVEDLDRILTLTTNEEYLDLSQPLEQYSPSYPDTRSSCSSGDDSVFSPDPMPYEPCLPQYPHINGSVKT
Experimental: as §1, §2

FGFR1 = target: T4, FGFR1 (Homo sapiens, UniProt P11362); assay: as above; assay type: biochemical; details: means from 3 independent experiments; read-out: Isolate Enzyme Inhibition IC50, FGFR1
T4 construct: purchased Invitrogen
T4 sequence (P11362 22-822): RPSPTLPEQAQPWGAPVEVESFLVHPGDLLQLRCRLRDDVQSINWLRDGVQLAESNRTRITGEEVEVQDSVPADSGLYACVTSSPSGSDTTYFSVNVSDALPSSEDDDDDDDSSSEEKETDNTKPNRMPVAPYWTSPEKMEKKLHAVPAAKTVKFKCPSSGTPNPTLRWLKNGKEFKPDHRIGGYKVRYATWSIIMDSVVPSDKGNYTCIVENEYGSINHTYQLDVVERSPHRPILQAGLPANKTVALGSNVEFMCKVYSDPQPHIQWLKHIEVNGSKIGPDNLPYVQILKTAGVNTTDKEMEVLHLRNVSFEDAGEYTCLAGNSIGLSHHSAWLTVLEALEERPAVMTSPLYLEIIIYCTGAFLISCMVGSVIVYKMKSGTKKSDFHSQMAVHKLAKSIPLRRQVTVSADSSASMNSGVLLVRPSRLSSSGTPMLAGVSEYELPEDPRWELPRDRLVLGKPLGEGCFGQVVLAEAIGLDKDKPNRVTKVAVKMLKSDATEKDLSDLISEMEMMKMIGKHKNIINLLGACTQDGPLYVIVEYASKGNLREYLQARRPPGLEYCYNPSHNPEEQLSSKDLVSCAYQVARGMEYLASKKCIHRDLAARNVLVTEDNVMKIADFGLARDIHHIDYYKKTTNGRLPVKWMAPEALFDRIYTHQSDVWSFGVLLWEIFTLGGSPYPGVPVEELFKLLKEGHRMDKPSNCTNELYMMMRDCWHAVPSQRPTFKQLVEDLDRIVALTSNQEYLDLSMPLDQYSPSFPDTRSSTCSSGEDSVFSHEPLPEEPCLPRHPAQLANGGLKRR
Experimental: as §1, §2

[2] = test system: FGFR3 in SW780 cells (phospho-ERK1/2); assay: Drug washout Western blot assay, SW780 cells; assay type: cell-based; details: for phospho-ERK1/2 after extensive drug washout: washout prior to FGF-stimulation; for reversible or irreversible inhibition of FGFR3 in cells: with and without washout
[3] = test system: FGFR1 in H520 cells (phospho-ERK1/2); assay: Drug washout Western blot assay, H520 cells; assay type: cell-based; details: for phospho-ERK1/2 after extensive drug washout: washout prior to FGF-stimulation; for reversible or irreversible inhibition of FGFR1 in cells: with and without washout
[4] = test system: FGFR1-amplified H520 non-small cell lung cancer cells; assay: Cell proliferation assay (SRB); assay type: cell-based; details: Homo sapiens, NCI-H520, 168 h, read-out: Cellular Anti-proliferative IC50, H520
[5] = test system: FGFR2-amplified SUM52 breast cancer cells; assay: Cell proliferation assay (SRB); assay type: cell-based; details: SUM52, 120 h, read-out: Cellular Anti-proliferative IC50, SUM52, 5 days drug exposure
[6] = target: T5, recombinant FGFR1 (C584S) kinase domain (Homo sapiens, UniProt P11362, C584S); assay: FGFR1 (C584S) covalent binding protein mass spectrometry assay; details: protein:inhibitor 1:10, 37° C.
T5 construct: made in house; host or cells: pETDuet vector, IPTG induction in Terrific Broth (bacterial)
T5 sequence (P11362 with tags, fused parts or gaps C584S): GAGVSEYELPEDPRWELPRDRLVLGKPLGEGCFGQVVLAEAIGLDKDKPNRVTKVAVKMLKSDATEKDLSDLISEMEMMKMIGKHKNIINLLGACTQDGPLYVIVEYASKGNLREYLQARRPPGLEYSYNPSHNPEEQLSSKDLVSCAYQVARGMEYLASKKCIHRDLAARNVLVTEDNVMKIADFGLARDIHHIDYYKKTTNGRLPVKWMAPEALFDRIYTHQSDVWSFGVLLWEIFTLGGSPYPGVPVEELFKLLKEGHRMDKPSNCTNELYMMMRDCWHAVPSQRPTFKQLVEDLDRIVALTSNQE
Experimental: The previously cloned C488A/C584S FGFR1 construct was modified by site-directed mutagenesis to provide a gene encoding the C584S FGFR1 kinase domain with the cysteine at amino acid C488 reinstated. Expression and purification of this protein followed the protocol described above but with the addition of 10% glycerol to all buffers and a change of buffer pH to a value of 8.5. Protein for mass spectrometry was concentrated to ˜40 mg/ml and was mixed 1:1 (v/v) with glycerol, and then frozen at −20° C. or flash cooled in liquid nitrogen and stored at −80° C. until needed.
Protein samples were buffer exchanged to remove glycerol (the final buffer comprised 20 mM Tris-HCl pH 8.5, 10% (v/v) glycerol, 20 mM NaCl, 5 mM EDTA, 2 mM TCEP) and were mixed with each inhibitor at 1:10 molar ratio (protein:inhibitor). Final protein concentration was 20 μM. […] Samples were mixed with 90 μL of 0.1% formic acid to quench the reaction followed by flash cooling in liquid nitrogen. Samples were stored at −80° C. until needed. All experiments were carried out in triplicate.
Samples were subjected to liquid chromatography mass spectrometry (LC-MS) to show mass changes attributable to irreversible inhibition. Mass spectrometry experiments were performed at the University of Auckland Mass Spectrometry Center using an electropspray QSTAR® XL ESI quadrupole Time-of-Flight (QToF) MS system (Applied Biosystems) operated in positive ionization mode. The instrument was calibrated using Renin Substrate Standard (SCIEX), over the m/z range 100-2000. Protein/inhibitor samples were thawed and 2 μL volumes injected into a liquid chromatography (LC) BIOshell™ A400 Protein C4 HPLC column (10 cm×2.1 mm, 3.4 μm) attached to the mass spectrometer. […] Following elution, samples were directly injected into the mass spectrometer for separation and mass analysis. Mass spectrometry data were processed and analysed using the PeakView™ 2.1 software and the Bio Tool Kit plug-in (SCIEX) and covered an m/z range of 330-1600. Deconvolution calculations allowed visualisation of intact mass protein peaks and allowed peak area measurement to assess the percentage of protein covalently modified by each inhibitor at each time point. Data was plotted using GraphPad Prism 7 (GraphPad).

[7] = test system: FGFR4-amplified Hep3B hepatocellular carcinoma cells; assay: Cell proliferation assay (SRB); assay type: cell-based; details: Homo sapiens, Hep3B; read-out: Cellular Anti-proliferative IC50, Hep3B
[8] = test system: FGFR2 in SUM52 cells (phospho-ERK1/2); assay: Drug washout Western blot assay, SUM52 cells; assay type: cell-based; details: for phospho-ERK1/2 after extensive drug washout: washout prior to FGF-stimulation
panel of 456 kinases = assay: Biochemical kinase selectivity screening (DiscoveRx KINOMEscan); assay type: binding
SUM52 cells = assay: Oxic and anoxic anti-proliferative activity of the prodrugs; details: read-out: Cellular Anti-proliferative IC50, SUM52, Oxic; oxic conditions
SW780 cells = assay: as above; assay type: cell-based; details: Homo sapiens, SW780; oxic conditions; read-out: Cellular Anti-proliferative IC50, SW780, Oxic
H520 cells = assay: as above; details: read-out: Cellular Anti-proliferative IC50, H520, Oxic; oxic conditions
[9] = Pulse radiolysis of prodrugs; assay type: physicochemical
[10] = H520, 2 hours exposure, 100, 300 and 600 nM

## COc1cc(OC)c(Cl)c(N2Cc3cnc(Nc4ccccc4)nc3N([C@H]3CCN(C(=O)/C=C/CN(C)C)C3)C2=O)c1Cl [Compound 106, (S,E)-3-(2,6-dichloro-3,5-dimethoxyphenyl)-1-(1-(4-(dimethylamino)but-2-enoyl)pyrrolidin-3-yl)-7-(phenylamino)-3,4-dihydropyrimido[4,5-d]pyrimidin-2(1H)-one]
[1]; read-out: Cellular Anti-proliferative IC50, SW780
  IC50: 5 nM
FGFR4
  IC50: < 100 nM and 94 nM
FGFR3
  IC50: 17 nM
FGFR2
  IC50: 26 nM
FGFR1
  IC50: 1.1 nM
[2]; SW780 (FGFR3), 30 minute exposure
  exposure concentration for irreversible inhibition (fully covalently bind the target) in cells: 100 nM
[2]; SW780, 100 nM, 30 min, then FGF-stimulation
  inhibition of phosphorylation of ERK1/2, no washout: complete inhibition
[2]; SW780, 100 nM, 30 min
  phospho-ERK1/2 after extensive drug washout: fully inhibited
[2]; SW780, 1000 nM, 30 min
  phospho-ERK1/2 after extensive drug washout: essential full inhibition
[2]; SW780, 30 min exposure, 100 nM
  reversible or irreversible inhibition of FGFR3 in cells: potent irreversible inhibitor
[2]; SW780, 120 minutes exposure, 100 nM
  reversible or irreversible inhibition of FGFR3 in cells: irreversible
[3]; H520 (FGFR1), 30 minute exposure
  exposure concentration for irreversible inhibition (fully covalently bind the target) in cells: 100 nM
[3]; H520, 100 nM, 30 min, then FGF-stimulation
  inhibition of phosphorylation of ERK1/2, no washout: complete inhibition
[3]; H520, 100 nM, 30 min
  phospho-ERK1/2 after extensive drug washout: fully inhibited
[3]; H520, 1000 nM, 30 min
  phospho-ERK1/2 after extensive drug washout: essential full inhibition
[3]; H520, 30 min exposure, 100 nM
  reversible or irreversible inhibition of FGFR1 in cells: potent irreversible inhibitor
[4]
  IC50: 11 nM
[5]
  IC50: 0.5 nM
[6]
  % Conversion to FGFR1 (C584S) covalent adduct after 120 minutes incubation: 11%
[7]
  IC50: 5.5 nM
[8]; SUM52 (FGFR2), 30 minute exposure
  exposure concentration for irreversible inhibition (fully covalently bind the target) in cells: 100 nM
[8]; SUM52, 100 nM, 30 min, then FGF-stimulation
  inhibition of phosphorylation of ERK1/2, no washout: complete inhibition
[8]; SUM52, 100 nM, 30 min
  phospho-ERK1/2 after extensive drug washout: fully inhibited
[8]; SUM52, 1000 nM, 30 min
  phospho-ERK1/2 after extensive drug washout: essential full inhibition
[8]; SUM52, 30 min exposure, 100 nM, with and without washout
  reversible or irreversible inhibition of FGFR2 in cells: potent irreversible inhibitor

## COc1cc(OC)c(Cl)c(N2Cc3cnc(Nc4ccc(F)cc4)nc3N(C3CCN(C(=O)/C=C/CN(C)C)CC3)C2=O)c1Cl [Compound 120, (E)-3-(2,6-dichloro-3,5-dimethoxyphenyl)-1-(1-(4-(dimethylamino)but-2-enoyl)piperidin-4-yl)-7-((4-fluorophenyl)amino)-3,4-dihydropyrimido[4,5-d]pyrimidin-2(1H)-one]
[1]; read-out: Cellular Anti-proliferative IC50, SW780, 5 days drug exposure
  IC50: 16 nM
Panel of 456 kinases; 1 uM, 33/403 kinases
  share of the non-mutant kinases studied with Percent Control <35: 8.2%
Panel of 456 kinases; panel of 456 kinases
  selectivity for the FGFR family: excellent selectivity
Panel of 456 kinases; set concentration of 1 uM
  S(35) selectivity score: 0.082
[3]; [10]
  reversible or irreversible inhibition of FGFR1 in cells: potent, irreversible inhibition
[4]
  IC50: 8.7 nM
[5]
  IC50: 0.8 nM

## CNc1ncc2c(n1)N([C@H]1CCN(C(=O)/C=C/C[N+](C)(C)Cc3c([N+](=O)[O-])ncn3C)C1)C(=O)N(c1c(Cl)c(OC)cc(OC)c1Cl)C2.[Br-] [Compound 200, (S,E)-4-(3-(3-(2,6-dichloro-3,5-dimethoxyphenyl)-7-(methylamino)-2-oxo-3,4-dihydropyrimido[4,5-d]pyrimidin-1(2H)-yl)pyrrolidin-1-yl)-N,N-dimethyl-N-((1-methyl-4-nitro-1H-imidazol-5-yl)methyl)-4-oxobut-2-en-1-aminium bromide]
other
  melting point: 195 to 198 °C
SUM52 cells
  IC50: 229 nM
SW780 cells
  IC50: 2640 nM
H520 cells
  IC50: 3660 nM
[3]; [10]
  reversible or irreversible inhibition of FGFR1 in cells: reversible inhibitor
[3]; H520, 2 hours exposure, tested at 100, 300 and 600 nM
  concentration required to suppress FGFR1 signalling through phospho-ERK1/2: 300 nM
[9]
  first order rate of fragmentation kfrag: 32 s⁻¹

## COc1cc(OC)c(Cl)c(N2Cc3cnc(NC(C)C)nc3N(C3CCN(C(=O)/C=C/C[N+](C)(C)Cc4c([N+](=O)[O-])ncn4C)CC3)C2=O)c1Cl.[Br-] [Compound 202, (E)-4-(4-(3-(2,6-dichloro-3,5-dimethoxyphenyl)-7-(isopropylamino)-2-oxo-3,4-dihydropyrimido[4,5-d]pyrimidin-1(2H)-yl)piperidin-1-yl)-N,N-dimethyl-N-((1-methyl-4-nitro-1H-imidazol-5-yl)methyl)-4-oxobut-2-en-1-aminium bromide]
other
  melting point: 171 to 174 °C
SUM52 cells
  IC50: 737 nM
SW780 cells
  IC50: 2120 nM
H520 cells
  IC50: 1730 nM
[3]; [10]
  reversible or irreversible inhibition of FGFR1 in cells: reversible inhibitors
[9]
  first order rate of fragmentation kfrag: 26 s⁻¹
